Measurements: publication PMC12523804, “Evaluation of molecular mechanisms of (Z)-3-(pentadec-10′-enyl)-catechol (litreol) and synthetic derivatives as inhibitors of human leukotriene biosynthesis” (Redox Biology, 2025)

Tested on: NF-κB
Assay: Western blot of NF-κB
Assay type: cell-based
Details: LPS stimulation
Procedure: Human polymorphonuclear leukocytes (PMNLs; 50 × 10^6), isolated from whole blood, were resuspended in 1 mL of cold PGC buffer. Briefly, neutrophils were pre-incubated for 15 min at 37 °C with test compounds (1 μM). […] The samples were subsequent centrifuged (1200g, 10 min) and the pellets were resuspended in 100 μL od SDS-PAGE loading buffer (2x) (Tris 1 M pH 8, EDTA 0.2 M, 10 % SDS, 10 % mercaptoethanol). Correct protein loading on the gels and transfer of proteins to the nitrocellulose membrane were confirmed by Ponceau staining. Membranes with transferred proteins were incubated overnight with primary antibodies in 1x Tris Buffered Saline (TBS) with 1 % Casein (Biorad- #1610782). Membranes were then washed and incubated with horseradish peroxidase-conjugated secondary antibodies for 1 h at room temperature. Blots were developed using enhanced chemiluminescence detection reagents ECL (Immobilion ECL Ultra Western HRP Substrate - Cat# WBULS0500 Millipore) and acquired using ChemiDoc Imaging System (BioRad). Antibody recognizing phosphorylated p38-MAPkinase, pERK, ERK, NfKB were from Cell Signalling Technology (Boston, MA) and used at 1:1000 dilution. Secondary antibodies were purchased from Biorad (170–6515; 170–6516) and used at 1:2000 diluition.

CCCC/C=C\CCCCCCCCCc1cccc(O)c1O [CI, (Z)-3-(pentadec-10′-enyl)-catechol]
NF-κB expression (Western blot): most pronounced effect
